{
  "source": "patent US20250361274A1",
  "about": "“PEPTIDE AND PEPTIDE-CONTAINING AGENT” (PEPTIDREAM INC., priority 2022, published 2025)",
  "type_in_all_cases": "cell-based",
  "key": {"BMP4": {"biological_target": "T1, BMP4 (Homo sapiens, UniProt P12644)", "T1 sequence (P12644 293-408)": "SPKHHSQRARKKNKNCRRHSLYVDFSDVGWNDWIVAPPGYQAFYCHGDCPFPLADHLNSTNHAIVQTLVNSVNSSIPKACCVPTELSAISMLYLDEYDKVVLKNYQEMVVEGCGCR", "experiment": "BMP4 signal transduction inhibitory activity: SMAD1 phosphorylation by BMP4 stimulus, AlphaLISA SureFire, A549 cells"}, "BMP2": {"biological_target": "T2, BMP2 (Homo sapiens, UniProt P12643)", "T2 sequence (P12643 283-396)": "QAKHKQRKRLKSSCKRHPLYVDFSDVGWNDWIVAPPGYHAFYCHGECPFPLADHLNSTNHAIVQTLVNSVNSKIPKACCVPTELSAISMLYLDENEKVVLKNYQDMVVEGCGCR", "experiment": "BMP family signal transduction inhibition (SMAD1 phosphorylation), BMP2 stimulus", "description": "(§1) In the present Example, BMP4 signal transduction inhibition peptide No. 177, peptide No. 29986 (SEQ ID NO: 277 (Example 8)), and peptide SEQ ID NO: 417 (Example 6) synthesized in Example 2, Example 8, and Example 6 were verified in the same manner as in Example 13 in order to confirm presence or absence of signal transduction inhibitory activities obtained by BMPs 2, 5, 6, 9, 12, and 14 belonging to the respective BMP families.\n(§2) Regarding the concentrations of the respective BMPs in the evaluation, 0.3 nM of BMP2, 2 nM of BMP5, 3 nM of BMP6, 10 nM of BMP9 and BMP12, and 0.6 nM of BMP14 were added, followed by application of stimulus.\n(§3) Regarding No. 177, the concentrations of the peptides were as follows. Specifically, eight concentrations of the peptides were used at a common ratio of 1/3 starting from 10 nM (BMP2), starting from 200 nM (BMP5), starting from 100 nM (BMP6), starting from 1,000 nM (BMP9 and BMP12), and starting from 60 nM (BMP14). The evaluation was performed in the same manner as in Example 11 except for the above points. Note that recombinant Human Noggin Protein (R&D) as a positive control was used at the same concentration as the peptide.\n(§4) Regarding the peptide SEQ ID NO: 277 (Example 8), the concentrations of the peptides were as follows. […]"}, "BMP6": {"biological_target": "T3, BMP6 (Homo sapiens, UniProt P22004)", "T3 sequence (P22004 375-513)": "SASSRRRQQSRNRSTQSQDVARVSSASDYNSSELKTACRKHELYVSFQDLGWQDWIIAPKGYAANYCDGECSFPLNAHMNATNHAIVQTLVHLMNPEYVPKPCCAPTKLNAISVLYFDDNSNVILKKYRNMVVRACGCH", "experiment": "BMP family signal transduction inhibition (SMAD1 phosphorylation), BMP6 stimulus", "description": "as §1, §2, §3, §4"}},
  "note": "“Also recorded” adds a separate entry of the source. Numbered stars: 1 amine (or outer) side, 2 acyl side, 3 side chain; on linkers, the order of the positions; unused ones are H or OH. Bridge positions count the residues as written; N and C are the ends. Square brackets hold non-standard residues; d marks the D form. Peptide text beside a SMILES is read from it. ξ: configuration not given here. X2 = O=C(C[C@@H](Cc1ccc(-c2ccccc2)cc1)C(=O)[*:2])[C@@H]1CCCN1[*:1]; Phe(4-COOH) = N[C@@H](Cc1ccc(C(=O)O)cc1)C(=O)O; Bip = N[C@@H](Cc1ccc(-c2ccccc2)cc1)C(=O)O; Nle(6-COOH) = N[C@@H](CCCCC(=O)O)C(=O)O; X1 = N=C(CN)NCCC[C@H](N[*:1])C(=O)[*:2]; Ala(4-THP) = N[C@@H](CC1CCOCC1)C(=O)O; ξE = NC(CCC(=O)O)C(=O)O; βAla = NCCC(=O)O",
  "data": [
    {"smiles": "CC(C)[C@@H]1NC(=O)[C@H](CCCNC(=N)N)NC(=O)[C@H](CCCCC(=O)O)NC(=O)CSC[C@@H](C(=O)NCCC(=O)NC(CCC(=O)O)C(=O)O)NC(=O)[C@H](CO)NC(=O)[C@H](Cc2ccc(C(=O)O)cc2)NC(=O)[C@H](Cc2ccc(C(=O)O)cc2)NC(=O)[C@H](Cc2ccc(O)cc2)NC(=O)[C@H](Cc2ccc(-c3ccccc3)cc2)CC(=O)[C@@H]2CCCN2C(=O)[C@H](Cc2ccc(O)cc2)NC(=O)[C@@H]2CCCN2C(=O)[C@H](Cc2ccc(-c3ccccc3)cc2)NC(=O)[C@H](CCCNC(=N)CN)NC(=O)[C@H](CC(=O)O)NC(=O)[C@H](CC2CCOCC2)NC(=O)[C@H](Cc2ccc(C(=O)O)cc2)NC1=O", "note": "(some centres unmarked) [SEQ ID No. 177] ({CH2CO}-[Nle(6-COOH)]RV[Phe(4-COOH)][Ala(4-THP)]D[X1][Bip]PY[X2]Y[Phe(4-COOH)][Phe(4-COOH)]SC[βAla][ξE]-OH; thioether N-16)", "values": [
      {"measurement": "BMP4 inhibitory activity (in words)", "setting": "BMP4", "value": "same level of the BMP4 inhibitory activity as Noggin; also recorded: signal transduction inhibitory activities of BMP4 and BMP7"},
      {"measurement": "IC50", "setting": "BMP4; Table 2, eight concentrations, ratio 1/3 from 2 nM, A549 cells", "value": 0.053, "unit": "nM"},
      {"measurement": "aLISA BMP4", "setting": "BMP4; class of inhibition of SMAD1 phosphorylation by BMP4 stimulus, AlphaLISA, A549 cells", "value": "A (showed an inhibitory activity of 50% or more in a zone to which the peptide was added to in an amount of 0.2 nM)"},
      {"measurement": "BMP2 signal transduction inhibitory activity (in words)", "setting": "BMP2", "value": "signal transduction inhibitory activities of BMP2, BMP5, and BMP6"},
      {"measurement": "BMP6 signal transduction inhibitory activity (in words)", "setting": "BMP6", "value": "signal transduction inhibitory activities of BMP2, BMP5, and BMP6"}
    ]}
  ]
}
